This note sets out measurements from PubChem BioAssay (NCI).

Molecules are shown by their SMILES. Several values for one entry are separate records, joined by “and”; a condition that tells them apart may be missing. Equal values may be shown once.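 Following 48 hours of exposure in 96-well plates, responses at five concentrations were used to interpolate endpoints linearly. The concentration for 50% growth inhibition is given as GI50. TGI denotes the concentration required for complete inhibition of growth.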 Where only a bound is given, the exact number is not on record here.

Test systems include A549 NSCLC; HL-60(TB) leukemia; HT29 colon; M14 melanoma; OVCAR-4 ovarian; RXF 393 renal; CCRF-CEM leukemia; SN12C renal; UACC-62 melanoma.
What all share (experiment): NCI-60 cell line screen, 48 h

As for `O=C(c1ccc(O)cc1O)C1C(c2ccc(O)cc2)OC(c2ccc(O)cc2)C1C(=O)c1ccc(O)cc1O` (configuration not stated), the TGI in the assay on A549 NSCLC is above 100 µM; with HL-60(TB) leukemia it was 39.4 µM; with HT29 colon, above 100 µM; with M14 melanoma, 34.5 µM; with OVCAR-4 ovarian, above 100 µM; with RXF 393 renal, 45.5 µM.
`Nc1ccc2n[se]nc2c1`: the TGI in the assay on A549 NSCLC, with CCRF-CEM leukemia, in the assay with HL-60(TB) leukemia, in the assay on HT29 colon, with M14 melanoma and in the assay on OVCAR-4 ovarian was above 100 µM each time. Also, the TGI in the assay with RXF 393 renal, in the assay with SN12C renal and in the assay with UACC-62 melanoma was above 100 µM in each case.
Take `Cc1ccc(NC(=O)CCc2nc(=S)[nH][nH]2)cc1`: the TGI in the assay with A549 NSCLC, in the assay with CCRF-CEM leukemia, in the assay with HL-60(TB) leukemia, in the assay with HT29 colon, in the assay on M14 melanoma and with OVCAR-4 ovarian was above 100 µM throughout. Moreover, the TGI in the assay with SN12C renal and in the assay on UACC-62 melanoma was above 100 µM each time.
For `COC(=O)CCSC(=O)Nc1ccc(N=Nc2ccccc2)cc1`, the TGI in the assay with A549 NSCLC, in the assay on CCRF-CEM leukemia, with HT29 colon, with M14 melanoma, in the assay on OVCAR-4 ovarian and in the assay on RXF 393 renal was above 100 µM each time. Besides, the TGI with SN12C renal and with UACC-62 melanoma was above 100 µM throughout.
On to `COC1=C(N)C(=O)c2nc(-c3nc(C(=O)O)c(C)c(-c4ccc(OC)c(OC)c4O)c3N)ccc2C1=O`, for which the GI50 with A549 NSCLC is 0.00135 µM and 0.00894 µM; with CCRF-CEM leukemia it was 0.0206 µM and 0.00386 µM; in the assay with SN12C renal, 0.00175 µM and 0.0149 µM; in the assay on UACC-62 melanoma, 0.00103 µM and 0.000879 µM and < 0.01 µM. In addition, the TGI in the assay with A549 NSCLC was 0.00428 µM and 0.0325 µM and 0.0216 µM; in the assay with CCRF-CEM leukemia it was 0.0398 µM and 0.0286 µM; with HL-60(TB) leukemia, 0.00499 µM and 0.0204 µM; in the assay on HT29 colon, 0.0337 µM and 0.0342 µM and 0.0663 µM; in the assay on OVCAR-4 ovarian, 0.0183 µM and 0.0416 µM and 0.0515 µM; in the assay on RXF 393 renal, 15 nM [middle of 4 runs]. Besides, in the assay with SN12C renal, the TGI was 0.00884 µM and 0.0161 µM.
As to `Cc1nc(N)nc(N)c1CCCCc1ccc(N)cc1`, the TGI in the assay on A549 NSCLC came to 16.8 µM; in the assay with CCRF-CEM leukemia it was 22.5 µM; in the assay with HL-60(TB) leukemia it was 19.4 µM; in the assay with HT29 colon it was 15.1 µM; in the assay with M14 melanoma it was 18.4 µM; with OVCAR-4 ovarian, 25.8 µM. Moreover, the TGI in the assay on SN12C renal came out at 16.9 µM; in the assay on UACC-62 melanoma, 14.1 µM.
Turning to `NC1NC=NC2C1N=CN2C1OC(CO)C2[O][Sn][O]C21` (configuration not stated), the GI50 in the assay on A549 NSCLC, in the assay on CCRF-CEM leukemia, with HL-60(TB) leukemia, in the assay with HT29 colon, with M14 melanoma and with OVCAR-4 ovarian was above 100 µM throughout. The GI50 is above 100 µM in the assay on RXF 393 renal, 1.98 µM with SN12C renal and above 100 µM in the assay with UACC-62 melanoma. Besides, the TGI with A549 NSCLC, in the assay on CCRF-CEM leukemia, in the assay with HL-60(TB) leukemia, in the assay with HT29 colon, in the assay with M14 melanoma and with OVCAR-4 ovarian was above 100 µM in each case. The TGI in the assay with RXF 393 renal, in the assay on SN12C renal and in the assay with UACC-62 melanoma was above 100 µM each time.
`COc1ccccc1NC(=O)C1=C(C)NC(C)=C(C(=O)Nc2ccccc2OC)C1c1ccccc1[N+](=O)[O-]`: the TGI in the assay with A549 NSCLC is above 100 µM; in the assay with CCRF-CEM leukemia, 48.9 µM; in the assay on HL-60(TB) leukemia, 45.3 µM; in the assay with HT29 colon it was 37 µM; with M14 melanoma it was 30 µM; in the assay with OVCAR-4 ovarian, 46.3 µM. Moreover, the TGI is above 100 µM in the assay with RXF 393 renal, 37.4 µM in the assay with SN12C renal and 54.1 µM in the assay with UACC-62 melanoma.
For the compound `COc1cc[c]([Sn]([c]2ccc(OC)cc2)([c]2ccc(OC)cc2)[c]2ccc(OC)cc2)cc1`, the GI50 in the assay with A549 NSCLC is 25.9 µM; in the assay on CCRF-CEM leukemia, 20.7 µM; in the assay on HT29 colon, 20.3 µM; in the assay on M14 melanoma, 16.7 µM; in the assay with OVCAR-4 ovarian it was 16.8 µM; in the assay on SN12C renal, above 100 µM. In addition, the GI50 in the assay with UACC-62 melanoma is 17.9 µM. Besides, the TGI is above 100 µM in the assay on A549 NSCLC; 69.8 µM in the assay on CCRF-CEM leukemia; above 100 µM with HT29 colon; 36 µM with M14 melanoma; 62.8 µM with OVCAR-4 ovarian; above 100 µM in the assay with SN12C renal. Besides, the TGI in the assay with UACC-62 melanoma is 69.3 µM.
Take `NC(=O)c1ccc2c(c1)-c1nc-2nc2[n-]c(nc3nc(nc4[n-]c(n1)c1ccc(C(N)=O)cc41)-c1ccc(C(N)=O)cc1-3)c1ccc(C(N)=O)cc21.[Co+2]`: the GI50 in the assay on A549 NSCLC was above 50 µM; in the assay on CCRF-CEM leukemia, 14.5 µM; in the assay with HL-60(TB) leukemia, 7.12 µM; with HT29 colon it was above 50 µM; with M14 melanoma, 26 µM; in the assay on OVCAR-4 ovarian, above 50 µM. The GI50 in the assay on SN12C renal and with UACC-62 melanoma was above 50 µM in each case. Further, the TGI in the assay with A549 NSCLC, in the assay with CCRF-CEM leukemia, in the assay on HL-60(TB) leukemia, in the assay on HT29 colon, in the assay with M14 melanoma and in the assay with OVCAR-4 ovarian was above 50 µM in each case. For the same compound, the TGI in the assay on SN12C renal and in the assay with UACC-62 melanoma was above 50 µM throughout.
In the case of `CC1(C)CCC(Sc2ccccc2)O1` (configuration not stated), the TGI in the assay on A549 NSCLC, in the assay on CCRF-CEM leukemia, in the assay with HL-60(TB) leukemia, in the assay on M14 melanoma, in the assay on OVCAR-4 ovarian and in the assay with RXF 393 renal was above 100 µM in each case. For the same compound, the TGI in the assay with SN12C renal and with UACC-62 melanoma was above 100 µM each time.
In the case of `O=[N+]([O-])c1ccc(C2=Nc3ccccc3S(=O)C(c3ccccc3)C2)cc1` (configuration not stated), the TGI is above 100 µM in the assay on A549 NSCLC; 36.9 µM with CCRF-CEM leukemia; 39.1 µM in the assay on HL-60(TB) leukemia; 42 µM with HT29 colon; 42 µM with M14 melanoma; 42 µM in the assay with OVCAR-4 ovarian. Also, the figures for the TGI in the assay with RXF 393 renal, in the assay with SN12C renal and in the assay on UACC-62 melanoma were 29 µM, 53.7 µM and 29.9 µM, respectively.
For the compound `Cc1ccc(CNc2ccc(Br)cc2)cc1`, the TGI in the assay on A549 NSCLC is above 100 µM; with CCRF-CEM leukemia, 78.4 µM; with HL-60(TB) leukemia, above 100 µM; in the assay with HT29 colon, 93.4 µM; with M14 melanoma it was above 100 µM; in the assay with RXF 393 renal, 76.5 µM. Moreover, the TGI with SN12C renal and with UACC-62 melanoma was above 100 µM throughout.
